# Activity calls are given as the source filed them.
# Legend:
# Genome polyprotein [1] = molecular target: Genome polyprotein (Hepatitis C virus, UniProt Q2Q167); test: HCV core protein dimerization inhibitors, dose response, biochemical, TR-FRET (AID 2159); design: species or system Hepacivirus hominis;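 further: blocks dimerization of HCV core protein measured by TR-FRET between tagged core106 pairs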
# Fatty acid synthase [2] = molecular target: T1, Fatty acid synthase (Homo sapiens, UniProt P49327); test: FAS thioesterase domain inhibitors, dose response, biochemical, endpoint fluorescence intensity, uHTS hits (AID 624327); type: functional;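 further: fluorescence from hydrolysis of an O-methyl fluorescein acyl ester substrate by the enzyme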
# Fatty acid synthase [3] = molecular target: T1, Fatty acid synthase; test: FAS thioesterase domain inhibitors, dose response, biochemical, kinetic fluorescence intensity (AID 624326); type: functional;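 further: rate of fluorescence rise from hydrolysis of a fluorogenic O-methyl fluorescein ester substrate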
# [4] = molecular target: Voltage-gated inwardly rectifying potassium channel KCNH2 (Homo sapiens, UniProt Q12809); test: hERG protection from proarrhythmic block, potency, dose response, cell-based, thallium flux (AID 2121); type: ADME
# [5] = molecular target: T2, E3 ubiquitin-protein ligase XIAP (Homo sapiens, UniProt P98170); test: Counter Screen using XIAP-Bir3 for Chemical Antagonists of Bir1/2 domains of IAP-family anti-apoptotic proteins. [Related pubchem assays (depositor defined):AID1018, AID1449, AID1514, AID1638, AID1749, AID1750, AID488957, AID488963]
# [6] = molecular target: T2, E3 ubiquitin-protein ligase XIAP; test: XIAP antagonists, biochemical, IAP family, fluorescence polarization (AID 1018); type: functional
# H9c2 = test: cells; type: functional, cell-based; conditions: Rattus norvegicus, H9c2, Myocardium;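 further: confirmatory concentration-response retest of ultra-high-throughput screening hits for modulation of myocardial damage; cell death induced by hydrogen peroxide oxidative stress; compound pretreatment for 60 min then peroxide exposure for 2 h; potency is for protecting the cells against peroxide damage rather than for killing them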
# Protein skinhead-1 = molecular target: T3, Protein skinhead-1 (Caenorhabditis elegans, UniProt P34707); type: functional
# T3 sequence (P34707 whole entry): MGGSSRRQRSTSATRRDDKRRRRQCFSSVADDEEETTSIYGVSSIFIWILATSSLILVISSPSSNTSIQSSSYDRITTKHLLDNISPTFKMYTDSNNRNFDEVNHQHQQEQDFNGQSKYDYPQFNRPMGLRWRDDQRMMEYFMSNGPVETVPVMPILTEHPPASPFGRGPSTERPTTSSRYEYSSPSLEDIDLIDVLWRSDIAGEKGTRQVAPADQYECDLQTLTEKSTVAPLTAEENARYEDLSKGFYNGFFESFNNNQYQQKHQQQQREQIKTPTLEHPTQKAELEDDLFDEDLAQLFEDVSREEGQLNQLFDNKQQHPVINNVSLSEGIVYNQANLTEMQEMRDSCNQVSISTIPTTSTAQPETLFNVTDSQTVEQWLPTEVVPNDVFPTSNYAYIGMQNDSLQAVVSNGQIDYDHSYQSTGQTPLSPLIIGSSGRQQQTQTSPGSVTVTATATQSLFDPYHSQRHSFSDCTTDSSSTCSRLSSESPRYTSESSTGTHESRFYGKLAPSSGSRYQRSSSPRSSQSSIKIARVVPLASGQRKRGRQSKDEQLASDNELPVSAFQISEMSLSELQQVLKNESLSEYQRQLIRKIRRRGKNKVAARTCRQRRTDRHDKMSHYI
# [7] = molecular target: Transitional endoplasmic reticulum ATPase (Homo sapiens, UniProt P55072); test: Luminescence dose response biochemical high throughput screening assay for inhibitors of the p97 ATPase: synthesized compounds. [Related pubchem assays: 1481, 1517 ]
# [8] = molecular target: Transitional endoplasmic reticulum ATPase (Homo sapiens, UniProt P55072, C522A); test: Luminescence counterscreen assay for p97 inhibitors: dose response biochemical high throughput screening assay to identify inhibitors of the C522A mutant p97 ATPase: synthesized compounds. [Related pubchem assays: 1481, 1517, 1551 ]
# [9] = molecular target: Sphingosine 1-phosphate receptor 2 (Homo sapiens, UniProt O95136); test: Dose Response Cell Based Assay for Agonists of the S1P2 Receptor of Purchased Analogues. [Related pubchem assays: 729, 843, 854, 736 ]; type: functional
# [10] = C. albicans growth with fluconazole, confirmation, fluorescence, retest (AID 2467); type: functional, cell-based
# [11] = THP-1 cell cytotoxicity, dose response, cytotoxicity control for Vif-APOBEC3G degradation inhibitor project, THP-1 cells (AID 1117359); type: functional; conditions: Human immunodeficiency virus 1, THP-1
# [12] = molecular target: T4, Mannose-6-phosphate isomerase (Homo sapiens, UniProt P34949); test: inhibitors of human PMI, primary screen, biochemical, fluorescence intensity, coupled assay (AID 1209)
# T4 sequence (P34949 whole entry): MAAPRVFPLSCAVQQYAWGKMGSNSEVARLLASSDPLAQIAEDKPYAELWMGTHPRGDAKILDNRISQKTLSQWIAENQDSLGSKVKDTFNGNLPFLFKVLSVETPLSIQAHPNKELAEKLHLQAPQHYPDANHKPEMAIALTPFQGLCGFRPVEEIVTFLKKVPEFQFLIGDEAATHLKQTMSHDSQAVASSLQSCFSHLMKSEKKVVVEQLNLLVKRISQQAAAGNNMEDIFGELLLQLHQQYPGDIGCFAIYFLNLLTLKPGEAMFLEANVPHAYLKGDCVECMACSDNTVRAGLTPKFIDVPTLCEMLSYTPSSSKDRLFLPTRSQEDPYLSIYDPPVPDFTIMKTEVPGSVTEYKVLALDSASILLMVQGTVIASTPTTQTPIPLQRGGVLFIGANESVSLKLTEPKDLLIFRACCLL
# [13] = molecular target: Induced myeloid leukemia cell differentiation protein Mcl-1 (Homo sapiens, UniProt Q07820); type: functional
# [14] = NIH-3T3 fibroblast cytotoxicity, dose response, cytotoxicity control, cell-based, fluorescence, Alamar Blue, secondary assay (AID 2327); type: functional;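 further: NIH-3T3 mouse fibroblasts cultured with fluconazole at 8 µg/mL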
# Vero = Vero cell cytotoxicity, cytotoxicity control for flavivirus capping enzyme inhibitors (AID 588742); type: functional; conditions: Chlorocebus sabaeus
# [15] = Vero cell cytotoxicity, dose response, cytotoxicity control for Vif-APOBEC3G degradation inhibitor project, Vero cells (AID 1117358); type: functional; conditions: Human immunodeficiency virus 1, Vero
# [16] = molecular target: Eukaryotic translation initiation factor 4H (Homo sapiens, UniProt Q15056); test: human eIF4H binding inhibitors, primary screen, translation initiation inhibitor project, biochemical, uHTS, fluorescence polarization (AID 2012)
# [17] = molecular target: Luciferin 4-monooxygenase (Photinus pyralis, UniProt P08659); test: firefly luciferase enzyme inhibitors, dose response, biochemical, luminescence (AID 1891)
# [18] = molecular target: T5, Long-chain-fatty-acid--AMP ligase FadD28 (Mycobacterium tuberculosis, UniProt P9WQ59); test: Fluorescence polarization aasay to screen for inhibitors that compete for the binding of FadD28 to a bisubstrate Measured in Biochemical System Using Plate Reader - 2147-01_Inhibitor_Dose_CherryPick_Activity.; type: functional, Mycobacterium tuberculosis H37Rv
# T5 sequence (P9WQ59 whole entry): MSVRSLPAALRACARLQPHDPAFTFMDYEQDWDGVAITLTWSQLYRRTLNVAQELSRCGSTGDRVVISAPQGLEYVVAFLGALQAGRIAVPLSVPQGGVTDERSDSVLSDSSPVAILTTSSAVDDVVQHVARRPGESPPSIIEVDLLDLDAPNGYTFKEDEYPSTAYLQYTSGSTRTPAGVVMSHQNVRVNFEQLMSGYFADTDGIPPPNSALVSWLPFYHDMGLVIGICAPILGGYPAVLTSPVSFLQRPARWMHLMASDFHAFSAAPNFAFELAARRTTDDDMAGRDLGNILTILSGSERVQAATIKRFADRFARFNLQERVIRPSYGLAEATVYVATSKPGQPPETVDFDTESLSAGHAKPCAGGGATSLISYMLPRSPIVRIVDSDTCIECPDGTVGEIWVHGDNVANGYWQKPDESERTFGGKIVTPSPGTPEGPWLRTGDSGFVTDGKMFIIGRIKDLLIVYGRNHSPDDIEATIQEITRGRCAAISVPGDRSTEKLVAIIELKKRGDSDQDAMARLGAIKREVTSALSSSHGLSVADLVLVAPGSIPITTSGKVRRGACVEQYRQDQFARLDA
# [19] = molecular target: Polyadenylate-binding protein 1 (Homo sapiens, UniProt P11940); test: PABP poly(A) RNA binding inhibitors, primary screen, biochemical, fluorescence polarization, uHTS (AID 2014)
# [20] = Luminescence Cell-Based Dose Confirmation HTS to Identify Inhibitors of Platelet Dense Granule Release. [Related pubchem assays: 1663 (Primary HTS), 1678 (Summary of Project)]; type: functional
# Protein Tat = Protein Tat (Human immunodeficiency virus type 1 group M subtype B (isolate HXB2)(HIV-1), UniProt P04608); type: functional;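 further: tat binding to TAR RNA read out by fluorescence polarization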
# Genome polyprotein [21] = molecular target: Genome polyprotein (dengue virus type 2, UniProt P29990); test: Dengue-2 NS5 methyltransferase inhibitors, primary screen, biochemical, confirmation dose response (AID 588689); type: functional
# [22] = growth suppression of PTEN-null colon cells, dose response, cell-based, HCT116 PTEN knockout (AID 1047); type: functional;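 further: HCT116 colon tumor cells with PTEN knocked out; cells exposed to compound for 60 hours before readout; potency for loss of cell viability measured by luminescence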
# [23] = molecular target: Mitogen-activated protein kinase 10 (Homo sapiens, UniProt P53779); test: Dose response biochemical screening assay for inhibitors of c-Jun N-Terminal Kinase 3 (JNK3). [Related pubchem assays: 746 ]
# [24] = molecular target: T6, Dual specificity protein phosphatase 6 (Rattus norvegicus, UniProt Q64346); test: MKP-3 phosphatase inhibitors, primary screen, biochemical, rat enzyme, in vitro (AID 425)
# T6 sequence (Q64346 whole entry): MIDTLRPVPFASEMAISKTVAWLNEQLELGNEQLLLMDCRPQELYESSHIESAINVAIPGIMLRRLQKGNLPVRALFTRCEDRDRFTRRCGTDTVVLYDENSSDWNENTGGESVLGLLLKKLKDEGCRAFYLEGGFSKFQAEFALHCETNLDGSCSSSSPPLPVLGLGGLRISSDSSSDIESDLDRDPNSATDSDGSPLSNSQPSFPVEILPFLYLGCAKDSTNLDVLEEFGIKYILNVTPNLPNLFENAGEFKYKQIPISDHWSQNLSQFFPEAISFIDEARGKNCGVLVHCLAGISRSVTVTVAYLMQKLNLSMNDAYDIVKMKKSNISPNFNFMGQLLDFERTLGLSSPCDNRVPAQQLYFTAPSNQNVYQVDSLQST
# [25] = molecular target: Protein-tyrosine kinase 2-beta (Homo sapiens, UniProt Q14289);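 further: potency of inhibitors of PYK2 kinase phosphorylation of poly-GT substrate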
# [26] = growth suppression of beta-catenin-knockout colon cells, dose response, cell-based, HCT116, human colon tumor (AID 1045); type: functional;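 further: HCT116 colon tumor cells with beta catenin knocked out; cells exposed to compound for 60 hours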
# T2 sequence (P98170 whole entry): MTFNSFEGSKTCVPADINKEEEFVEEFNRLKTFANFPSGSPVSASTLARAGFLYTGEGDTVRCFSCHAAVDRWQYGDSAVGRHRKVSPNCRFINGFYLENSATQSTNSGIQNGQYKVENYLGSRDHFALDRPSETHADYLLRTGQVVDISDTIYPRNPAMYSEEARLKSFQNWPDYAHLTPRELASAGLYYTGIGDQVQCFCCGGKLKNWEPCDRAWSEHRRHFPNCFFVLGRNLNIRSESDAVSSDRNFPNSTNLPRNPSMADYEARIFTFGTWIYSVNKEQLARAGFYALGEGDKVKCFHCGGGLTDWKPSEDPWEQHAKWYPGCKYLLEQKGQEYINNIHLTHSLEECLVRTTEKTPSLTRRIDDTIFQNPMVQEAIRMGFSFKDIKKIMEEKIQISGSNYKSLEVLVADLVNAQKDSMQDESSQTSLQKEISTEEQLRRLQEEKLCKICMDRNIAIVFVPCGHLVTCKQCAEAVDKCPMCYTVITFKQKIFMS
# T1 sequence (P49327 whole entry, the tested form may be a part): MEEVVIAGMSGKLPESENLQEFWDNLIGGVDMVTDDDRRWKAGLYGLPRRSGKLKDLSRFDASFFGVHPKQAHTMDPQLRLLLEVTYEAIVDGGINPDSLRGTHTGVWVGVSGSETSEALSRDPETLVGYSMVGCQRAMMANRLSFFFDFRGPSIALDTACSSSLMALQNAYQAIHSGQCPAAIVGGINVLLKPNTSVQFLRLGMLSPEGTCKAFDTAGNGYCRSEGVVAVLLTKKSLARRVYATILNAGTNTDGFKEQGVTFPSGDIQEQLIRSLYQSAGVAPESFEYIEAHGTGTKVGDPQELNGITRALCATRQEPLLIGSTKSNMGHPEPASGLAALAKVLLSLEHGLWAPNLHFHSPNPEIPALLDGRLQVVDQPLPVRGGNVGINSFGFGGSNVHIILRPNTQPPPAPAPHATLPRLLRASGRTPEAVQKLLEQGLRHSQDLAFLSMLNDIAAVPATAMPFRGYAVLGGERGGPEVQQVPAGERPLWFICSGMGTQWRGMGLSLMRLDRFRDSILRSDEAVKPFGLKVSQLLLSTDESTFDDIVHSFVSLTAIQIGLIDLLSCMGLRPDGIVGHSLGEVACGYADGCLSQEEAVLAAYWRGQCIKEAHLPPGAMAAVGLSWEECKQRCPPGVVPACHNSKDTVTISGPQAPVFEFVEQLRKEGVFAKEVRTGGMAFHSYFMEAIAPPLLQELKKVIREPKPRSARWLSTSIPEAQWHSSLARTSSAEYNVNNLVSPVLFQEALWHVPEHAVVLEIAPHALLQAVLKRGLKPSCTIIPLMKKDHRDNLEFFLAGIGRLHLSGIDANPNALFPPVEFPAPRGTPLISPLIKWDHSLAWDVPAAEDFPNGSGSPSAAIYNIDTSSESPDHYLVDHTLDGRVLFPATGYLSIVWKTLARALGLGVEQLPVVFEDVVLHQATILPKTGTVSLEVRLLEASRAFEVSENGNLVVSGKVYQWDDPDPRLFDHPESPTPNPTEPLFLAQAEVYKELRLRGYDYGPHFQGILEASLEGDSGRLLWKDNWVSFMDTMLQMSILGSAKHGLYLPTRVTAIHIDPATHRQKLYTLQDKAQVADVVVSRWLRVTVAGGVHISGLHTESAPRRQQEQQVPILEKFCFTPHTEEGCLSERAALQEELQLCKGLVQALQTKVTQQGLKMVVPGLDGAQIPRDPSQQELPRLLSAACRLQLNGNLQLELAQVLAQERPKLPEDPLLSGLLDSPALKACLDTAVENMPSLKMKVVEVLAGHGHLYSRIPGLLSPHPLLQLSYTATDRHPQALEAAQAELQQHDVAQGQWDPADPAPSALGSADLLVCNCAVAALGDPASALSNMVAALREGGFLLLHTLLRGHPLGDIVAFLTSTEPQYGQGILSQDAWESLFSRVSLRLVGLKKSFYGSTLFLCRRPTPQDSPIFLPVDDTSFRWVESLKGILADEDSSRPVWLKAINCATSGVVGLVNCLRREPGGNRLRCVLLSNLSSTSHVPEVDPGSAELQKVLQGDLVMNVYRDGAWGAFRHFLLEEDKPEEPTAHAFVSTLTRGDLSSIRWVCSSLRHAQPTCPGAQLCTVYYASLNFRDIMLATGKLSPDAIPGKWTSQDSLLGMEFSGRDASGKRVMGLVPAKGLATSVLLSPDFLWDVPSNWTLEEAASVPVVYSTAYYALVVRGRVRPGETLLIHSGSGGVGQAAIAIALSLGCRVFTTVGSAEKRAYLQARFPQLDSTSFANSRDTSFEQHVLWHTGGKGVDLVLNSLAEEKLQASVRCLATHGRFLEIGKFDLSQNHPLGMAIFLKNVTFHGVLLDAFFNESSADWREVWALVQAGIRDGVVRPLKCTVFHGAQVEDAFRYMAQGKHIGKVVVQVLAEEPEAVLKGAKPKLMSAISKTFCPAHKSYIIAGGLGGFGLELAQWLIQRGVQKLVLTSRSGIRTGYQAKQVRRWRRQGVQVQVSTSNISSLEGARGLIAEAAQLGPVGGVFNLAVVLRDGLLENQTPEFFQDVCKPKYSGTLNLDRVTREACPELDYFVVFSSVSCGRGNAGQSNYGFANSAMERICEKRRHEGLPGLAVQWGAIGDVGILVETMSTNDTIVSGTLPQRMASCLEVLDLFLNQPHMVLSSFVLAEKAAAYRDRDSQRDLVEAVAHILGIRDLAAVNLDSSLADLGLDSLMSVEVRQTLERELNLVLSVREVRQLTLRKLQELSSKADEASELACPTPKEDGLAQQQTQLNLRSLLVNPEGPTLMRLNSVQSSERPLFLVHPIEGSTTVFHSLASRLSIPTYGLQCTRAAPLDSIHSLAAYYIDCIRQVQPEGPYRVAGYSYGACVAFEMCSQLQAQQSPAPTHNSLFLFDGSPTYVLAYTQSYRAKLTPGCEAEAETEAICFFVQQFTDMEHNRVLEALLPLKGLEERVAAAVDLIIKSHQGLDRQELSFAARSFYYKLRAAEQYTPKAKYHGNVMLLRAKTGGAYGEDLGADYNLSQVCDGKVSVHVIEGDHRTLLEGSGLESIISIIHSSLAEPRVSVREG
# Sequence of Voltage-gated inwardly rectifying potassium channel KCNH2 (Q12809 whole entry): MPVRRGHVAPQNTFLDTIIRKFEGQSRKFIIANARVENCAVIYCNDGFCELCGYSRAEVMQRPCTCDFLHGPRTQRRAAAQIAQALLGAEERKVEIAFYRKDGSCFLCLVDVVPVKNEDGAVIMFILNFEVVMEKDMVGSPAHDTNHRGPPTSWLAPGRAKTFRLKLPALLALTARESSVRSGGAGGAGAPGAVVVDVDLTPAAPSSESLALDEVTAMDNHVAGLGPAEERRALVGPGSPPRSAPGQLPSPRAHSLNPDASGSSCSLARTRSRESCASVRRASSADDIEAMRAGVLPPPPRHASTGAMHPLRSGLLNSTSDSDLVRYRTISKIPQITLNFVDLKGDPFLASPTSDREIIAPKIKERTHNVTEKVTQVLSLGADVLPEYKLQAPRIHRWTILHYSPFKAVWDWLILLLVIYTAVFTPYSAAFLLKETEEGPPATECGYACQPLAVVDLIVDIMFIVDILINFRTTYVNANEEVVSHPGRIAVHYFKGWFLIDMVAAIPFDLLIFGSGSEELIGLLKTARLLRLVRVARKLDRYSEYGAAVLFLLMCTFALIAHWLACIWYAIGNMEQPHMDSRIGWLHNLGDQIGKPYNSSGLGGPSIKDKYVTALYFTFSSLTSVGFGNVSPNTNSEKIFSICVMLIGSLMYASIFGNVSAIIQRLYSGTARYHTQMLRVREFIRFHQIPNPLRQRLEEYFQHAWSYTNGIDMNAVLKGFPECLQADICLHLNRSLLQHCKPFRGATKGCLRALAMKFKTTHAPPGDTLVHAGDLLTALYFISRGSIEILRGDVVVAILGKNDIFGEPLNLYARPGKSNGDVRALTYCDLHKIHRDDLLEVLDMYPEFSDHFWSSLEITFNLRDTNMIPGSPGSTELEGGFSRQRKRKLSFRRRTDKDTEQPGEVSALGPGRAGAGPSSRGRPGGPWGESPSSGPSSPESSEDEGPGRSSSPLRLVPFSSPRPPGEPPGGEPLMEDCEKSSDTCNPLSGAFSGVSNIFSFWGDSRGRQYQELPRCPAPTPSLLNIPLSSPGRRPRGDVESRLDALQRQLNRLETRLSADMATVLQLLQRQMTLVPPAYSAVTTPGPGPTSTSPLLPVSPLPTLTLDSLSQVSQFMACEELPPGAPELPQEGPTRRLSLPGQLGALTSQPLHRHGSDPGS
# Sequence of Luciferin 4-monooxygenase (P08659 whole entry): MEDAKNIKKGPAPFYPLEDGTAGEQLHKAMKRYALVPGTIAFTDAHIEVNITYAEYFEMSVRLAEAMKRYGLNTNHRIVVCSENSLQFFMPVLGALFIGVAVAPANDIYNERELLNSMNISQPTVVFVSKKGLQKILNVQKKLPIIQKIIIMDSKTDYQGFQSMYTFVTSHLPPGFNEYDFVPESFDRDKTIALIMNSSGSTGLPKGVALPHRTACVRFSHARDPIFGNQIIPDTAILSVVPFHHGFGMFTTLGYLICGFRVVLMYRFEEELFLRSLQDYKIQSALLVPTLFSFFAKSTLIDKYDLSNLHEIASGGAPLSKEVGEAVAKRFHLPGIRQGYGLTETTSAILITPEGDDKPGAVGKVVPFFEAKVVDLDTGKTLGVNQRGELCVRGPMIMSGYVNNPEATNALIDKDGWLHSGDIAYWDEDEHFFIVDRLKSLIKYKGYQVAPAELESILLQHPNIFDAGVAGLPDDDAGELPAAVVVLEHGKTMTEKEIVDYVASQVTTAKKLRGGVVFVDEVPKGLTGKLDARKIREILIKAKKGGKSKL
# Sequence of Genome polyprotein (Hepatitis C virus, UniProt Q2Q167) (Q2Q167 whole entry, the tested form may be a part): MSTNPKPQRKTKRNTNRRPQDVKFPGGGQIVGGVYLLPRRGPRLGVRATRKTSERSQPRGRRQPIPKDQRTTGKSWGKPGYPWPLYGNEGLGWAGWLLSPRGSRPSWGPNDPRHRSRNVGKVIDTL
# Sequence of Protein Tat (P04608 whole entry): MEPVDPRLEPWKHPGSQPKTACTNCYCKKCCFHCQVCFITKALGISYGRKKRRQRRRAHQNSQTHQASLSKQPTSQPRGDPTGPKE
structure (smiles),measurement,setting,value
COc1ccc(C2CC(c3cccs3)=NN2C(=O)CSc2nc(=O)n3ccc(C)cc3n2)cc1 (stereo not given),IC50,Genome polyprotein [1],> 49.8 µM (not active)
same,IC50,Fatty acid synthase [2],8.11 µM (active)
same,IC50,Fatty acid synthase [3],7.51 µM (active)
N#Cc1c(NC(=O)c2cc(-n3cnnc3)ccc2Cl)sc2c1CCCC2,EC50,[4],12.7 µM (active)
Cc1ccc2cc3c(NC(=O)c4cccnc4)nn(C)c3nc2c1,IC50,[5],> 100 µM (inactive)
same,IC50,[6],> 100 µM (not active)
same,IC50,H9c2,> 79 µM (inactive)
same,IC50,Protein skinhead-1,> 100 µM (inactive)
N#Cc1ccc(Nc2nc(-c3ccc(C#N)cc3)cs2)cc1,IC50,[7],> 50 µM (not active)
same,IC50,[8],> 50 µM (not active)
Cc1cc(C)nc(SCC(=O)OCC(=O)c2cc(C)n(Cc3ccccc3)c2C)n1,EC50,[9],> 30 µM (not active)
C/N=c1\scc(-c2cccs2)n1/N=C/c1ccc(O)c(O)c1O,EC50,[10],> 38 µM (not active)
same,CC50,[11],12.1 µM (active)
same,IC50,[12],15.5 µM (active)
same,IC50,[13],7.08 µM (active)
same,EC50,[14],> 150 µM (inactive)
same,CC50,Vero,13 µM (active)
same,CC50,[15],> 40 µM (active)
same,IC50,[16],59.2 µM (active)
same,EC50,[17],0.636 µM (active)
same,AC50,[18],> 100 µM (inactive)
same,IC50,[19],> 100 µM (inactive)
same,EC50,[20],1.53 µM (active)
same,IC50,Protein Tat,98.1 µM (inconclusive)
same,IC50,Genome polyprotein [21],70.7 µM (active)
O=C(Nc1cccc(-c2nc3ccccc3[nH]2)c1)c1cccc(NC(=O)c2ccco2)c1,EC50,[22],57.9 µM (active)
same,IC50,[23],68.5 µM (not active)
same,IC50,[24],2.5 µM (active)
same,IC50,[25],5.03 µM (active)
same,EC50,[26],53.7 µM (active)

# — ChEMBL document CHEMBL1201862, “PubChem BioAssay data set” (2004)
